From patent publication US12180194B2, “Multi-aziridine compound” (Covestro (Netherlands) B.V., priority 2018, dated 2024)

Key:
Rtkn-GFP = assay: ToxTracker genotoxicity assay, Rtkn-GFP reporter induction; conditions: for Genotoxicity test, With S9 rat liver extract, Rtkn, 10 / Genotoxicity test, Without S9 rat liver extract, Rtkn, 10: GFP induction vs vehicle at 10% cytotoxicity; for Genotoxicity test, With S9 rat liver extract, Rtkn, 10 / Genotoxicity test, With S9 rat liver extract, Rtkn, 25 / Genotoxicity test, With S9 rat liver extract, Rtkn, 50: 3 h exposure with S9, 24 h recovery; for Genotoxicity test, Without S9 rat liver extract, Rtkn, 10 / Genotoxicity test, Without S9 rat liver extract, Rtkn, 25 / Genotoxicity test, Without S9 rat liver extract, Rtkn, 50: 24 h exposure, no S9; for Genotoxicity test, With S9 rat liver extract, Rtkn, 25 / Genotoxicity test, Without S9 rat liver extract, Rtkn, 25: GFP induction vs vehicle at 25% cytotoxicity; for Genotoxicity test, With S9 rat liver extract, Rtkn, 50 / Genotoxicity test, Without S9 rat liver extract, Rtkn, 50: GFP induction vs vehicle at 50% cytotoxicity; for Genotoxicity test, Rtkn induction level: fold induction
Bscl2-GFP = assay: ToxTracker genotoxicity assay, Bscl2-GFP reporter induction; conditions: for Genotoxicity test, Bscl 2 induction level: fold induction; for Genotoxicity test, With S9 rat liver extract, Bscl 2, 10 / Genotoxicity test, Without S9 rat liver extract, Bscl 2, 10: GFP induction vs vehicle at 10% cytotoxicity; for Genotoxicity test, With S9 rat liver extract, Bscl 2, 10 / Genotoxicity test, With S9 rat liver extract, Bscl 2, 25 / Genotoxicity test, With S9 rat liver extract, Bscl 2, 50: 3 h exposure with S9, 24 h recovery; for Genotoxicity test, Without S9 rat liver extract, Bscl 2, 10 / Genotoxicity test, Without S9 rat liver extract, Bscl 2, 25 / Genotoxicity test, Without S9 rat liver extract, Bscl 2, 50: 24 h exposure, no S9; for Genotoxicity test, With S9 rat liver extract, Bscl 2, 25 / Genotoxicity test, Without S9 rat liver extract, Bscl 2, 25: GFP induction vs vehicle at 25% cytotoxicity; for Genotoxicity test, With S9 rat liver extract, Bscl 2, 50 / Genotoxicity test, Without S9 rat liver extract, Bscl 2, 50: GFP induction vs vehicle at 50% cytotoxicity
[1] = with S9 rat liver extract, concentration 10 (10% cytotoxicity)
[2] = with S9 rat liver extract, concentration 25 (25% cytotoxicity)
[3] = with S9 rat liver extract, concentration 50 (50% cytotoxicity)
[4] = without S9 rat liver extract, concentration 10 (10% cytotoxicity)
[5] = without S9 rat liver extract, concentration 25 (25% cytotoxicity)
[6] = without S9 rat liver extract, concentration 50 (50% cytotoxicity)

Compound	Genotoxicity test, With S9 rat liver extract, Rtkn, 10 (Rtkn-GFP) [fold]	Genotoxicity test, Without S9 rat liver extract, Rtkn, 10 (Rtkn-GFP) [fold]	Genotoxicity test, With S9 rat liver extract, Rtkn, 25 (Rtkn-GFP) [fold]	Genotoxicity test, Without S9 rat liver extract, Rtkn, 25 (Rtkn-GFP) [fold]	Genotoxicity test, With S9 rat liver extract, Rtkn, 50 (Rtkn-GFP) [fold]	Genotoxicity test, Without S9 rat liver extract, Rtkn, 50 (Rtkn-GFP) [fold]	Genotoxicity test, With S9 rat liver extract, Bscl 2, 10 (Bscl2-GFP) [fold]	Genotoxicity test, Without S9 rat liver extract, Bscl 2, 10 (Bscl2-GFP) [fold]	Genotoxicity test, With S9 rat liver extract, Bscl 2, 25 (Bscl2-GFP) [fold]	Genotoxicity test, Without S9 rat liver extract, Bscl 2, 25 (Bscl2-GFP) [fold]	Genotoxicity test, With S9 rat liver extract, Bscl 2, 50 (Bscl2-GFP) [fold]	Genotoxicity test, Without S9 rat liver extract, Bscl 2, 50 (Bscl2-GFP) [fold]	also measured
CC(CN1CC1C)OC(=O)NCCCCCCn1c(=O)n(CCCCCCNC(=O)OC(C)CN2CC2C)c(=O)n(CCCCCCNC(=O)OC(C)CN2CC2C)c1=O (stereo not drawn) [Ex. 1]	1.2	1.2	1.1	1.2	0.9	1.4	–	–	–	–	–	–	–
COCCOCCOCCOCCOCCOCCOCCOCCOCCOCCOCCOCCOCCOCCOCCOCCOCCOCCOCCOCCOCCOCCOCCOCCOCCOCC(CN1CC1C)OC(=O)NCCCCCCn1c(=O)n(CCCCCCNC(=O)OC(COCCOCCOCCOCCOCCOCCOCCOCCOCCOCCOCCOCCOCCOCCOCCOCCOCCOCCOCCOCCOCCOCCOCCOCCOCCOC)CN2CC2C)c(=O)n(CCCCCCNC(=O)OC(COCCOCCOCCOCCOCCOCCOCCOCCOCCOCCOCCOCCOCCOCCOCCOCCOCCOCCOCCOCCOCCOCCOCCOCCOCCOC)CN2CC2C)c1=O (stereo not drawn) [Ex. 30]	–	–	–	–	–	–	–	–	–	–	–	–	Genotoxicity test, Bscl 2 induction level (Bscl2-GFP; [1]): 1.0; Genotoxicity test, Bscl 2 induction level (Bscl2-GFP; [2]): 1.5; Genotoxicity test, Bscl 2 induction level (Bscl2-GFP; [3]): 1.8; Genotoxicity test, Bscl 2 induction level (Bscl2-GFP; [4]): 1.0; Genotoxicity test, Bscl 2 induction level (Bscl2-GFP; [5]): 1.3; Genotoxicity test, Bscl 2 induction level (Bscl2-GFP; [6]): 1.6; Genotoxicity test, Rtkn induction level (Rtkn-GFP; [1]): 0.8; Genotoxicity test, Rtkn induction level (Rtkn-GFP; [2]): 0.9; Genotoxicity test, Rtkn induction level (Rtkn-GFP; [3]): 1.0; Genotoxicity test, Rtkn induction level (Rtkn-GFP; [4]): 0.9; Genotoxicity test, Rtkn induction level (Rtkn-GFP; [5]): 0.9; Genotoxicity test, Rtkn induction level (Rtkn-GFP; [6]): 1.0
CCCCCCCCCC(=O)OCC(CN1CC1C)OC(=O)NCCCCCCn1c(=O)n(CCCCCCNC(=O)OC(COC(=O)CCCCCCCCC)CN2CC2C)c(=O)n(CCCCCCNC(=O)OC(COC(=O)CCCCCCCCC)CN2CC2C)c1=O (stereo not drawn) [Ex. 24]	1.1	1.1	1.1	1.2	1.2	1.0	1.0	1.1	1.1	1.2	1.1	1.0	–
CC1CN1C1CCCCC1OC(=O)NCCCCCCn1c(=O)n(CCCCCCNC(=O)OC2CCCCC2N2CC2C)c(=O)n(CCCCCCNC(=O)OC2CCCCC2N2CC2C)c1=O (stereo not drawn) [Ex. 19]	1.2	1.2	1.3	1.3	1.3	–	1.1	1.1	1.2	1.3	1.2	–	–
CCCCOCC(CN1CC1C)OC(=O)Nc1ccc(C)c(NC(=O)OC(COCCCC)CN2CC2C)c1 (stereo not drawn) [Comp. Ex. 11, reference compound]	1.2	1.3	2.1	2.1	2.5	2.3	1.3	1.2	1.7	1.6	1.6	1.9	–
CC(CN1CC1C)OC(=O)NCCCCCC/N=c1\oc(=O)n(CCCCCCNC(=O)OC(C)CN2CC2C)c(=O)n1CCCCCCNC(=O)OC(C)CN1CC1C (stereo not drawn) [Ex. 2]	1.1	1.1	–	1.0	–	0.9	1.0	1.1	–	1.1	–	0.9	–
CCCCOCC(CN1CC1C)OC(=O)NC(C)(C)c1cccc(C(C)(C)NC(=O)OC(COCCCC)CN2CC2C)c1 (stereo not drawn) [Ex. 11]	1.3	1.1	1.3	1.3	1.1	1.3	1.2	1.1	1.3	1.3	1.3	1.3	–
CCCCCCCCCC(=O)OCC(CN1CC1C)OC(=O)NC1CCC(CC2CCC(NC(=O)OC(COC(=O)CCCCCCCCC)CN3CC3C)CC2)CC1 (stereo not drawn) [Ex. 23]	1.0	1.1	1.2	1.2	1.2	1.1	1.1	1.1	1.1	1.2	1.1	1.2	–
CC(CN1CC1C)OC(=O)NC(C)(C)c1cccc(C(C)(C)NC(=O)OC(C)CN2CC2C)c1 (stereo not drawn) [Comp. Ex. 8, reference compound]	1.3	1.4	4.2	2.3	4.9	4.8	1.1	1.2	2.1	1.7	2.1	2.3	–
CCCCCCCCCC(=O)OCC(CN1CC1C)OC(=O)NC(C)(C)c1cccc(C(C)(C)NC(=O)OC(COC(=O)CCCCCCCCC)CN2CC2C)c1 (stereo not drawn) [Ex. 22]	1.1	1.0	1.1	1.0	1.0	1.0	1.2	1.0	1.2	1.0	1.2	0.9	–
CC(OC(=O)NCCCCCCn1c(=O)n(CCCCCCNC(=O)OC(C)C(C)N2CC2C)c(=O)n(CCCCCCNC(=O)OC(C)C(C)N2CC2C)c1=O)C(C)N1CC1C (stereo not drawn) [Ex. 8]	1.3	1.2	1.5	1.4	1.3	1.4	–	–	–	–	–	–	–
